In PubChem BioAssay AID248 (DTP/NCI, 2004):
Several values for one entry are separate records, joined by “and”; a condition that tells them apart may be missing. Equal entries are not always repeated. Toxic doses and inconclusive results are not listed.

Test system: L1210 leukemia ip in BDF1 mice, survival T/C
Assay: NCI In Vivo Anticancer Drug Screen. Data for tumor model L1210 Leukemia (intraperitoneal) in B6D2F1 (BDF1) mice
Details: endpoint: mean survival time, higher = longer survival
How it was run: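 Antitumor effect is assessed in tumor-bearing animals. Survival in the compound arm is compared with a vehicle-dosed control arm and expressed as their quotient.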

[1] = dose: 100.0 mg/kg/injection, schedule: Q01DX009 (ip), vehicle: saline
[2] = dose: 100.0 mg/kg/injection, schedule: Q04DX003 (ip), vehicle: saline
[3] = dose: 200.0 mg/kg/injection, schedule: Q01DX009 (ip), vehicle: saline
[4] = dose: 200.0 mg/kg/injection, schedule: Q04DX003 (ip), vehicle: saline
[5] = dose: 400.0 mg/kg/injection, schedule: Q04DX003 (ip), vehicle: saline
[6] = dose: 100.0 mg/kg/injection, schedule: Q01DX009 (ip), vehicle: Klucel (hydroxypropylcellulose) (HPC)
[7] = dose: 200.0 mg/kg/injection, schedule: Q01DX009 (ip), vehicle: Klucel (hydroxypropylcellulose) (HPC)
[8] = dose: 400.0 mg/kg/injection, schedule: Q01DX009 (ip), vehicle: Klucel (hydroxypropylcellulose) (HPC)
[9] = dose: 15.0 mg/kg/injection, schedule: Q01DX Z (ip), vehicle: carboxymethylcellulose (CMC)
[10] = dose: 12.5 mg/kg/injection, schedule: Q01DX009 (ip), vehicle: saline with Tween-80
[11] = dose: 25.0 mg/kg/injection, schedule: Q01DX009 (ip), vehicle: saline with Tween-80
[12] = dose: 50.0 mg/kg/injection, schedule: Q01DX009 (ip), vehicle: saline with Tween-80
[13] = dose: 100.0 mg/kg/injection, schedule: Q01DX009 (ip), vehicle: saline with Tween-80
[14] = dose: 200.0 mg/kg/injection, schedule: Q01DX009 (ip), vehicle: saline with Tween-80
[15] = dose: 400.0 mg/kg/injection, schedule: Q01DX009 (ip), vehicle: saline with Tween-80
[16] = dose: 100.0 mg/kg/injection, schedule: Q04DX003 (ip), vehicle: Klucel (hydroxypropylcellulose) (HPC)
[17] = dose: 200.0 mg/kg/injection, schedule: Q04DX003 (ip), vehicle: Klucel (hydroxypropylcellulose) (HPC)
[18] = dose: 400.0 mg/kg/injection, schedule: Q04DX003 (ip), vehicle: Klucel (hydroxypropylcellulose) (HPC)
[19] = dose: 50.0 mg/kg/injection, schedule: Q01DX009 (ip), vehicle: Klucel (hydroxypropylcellulose) (HPC)
[20] = dose: 100.0 mg/kg/injection, schedule: Q04DX003 (ip), vehicle: saline with Tween-80
[21] = dose: 200.0 mg/kg/injection, schedule: Q04DX003 (ip), vehicle: saline with Tween-80
[22] = dose: 400.0 mg/kg/injection, schedule: Q04DX003 (ip), vehicle: saline with Tween-80
[23] = dose: 50.0 mg/kg/injection, schedule: Q01DX001 (ip), vehicle: saline with Tween-80
[24] = dose: 100.0 mg/kg/injection, schedule: Q01DX001 (ip), vehicle: saline with Tween-80
[25] = dose: 400.0 mg/kg/injection, schedule: Q01DX009 (ip), vehicle: saline

CC([NH-])C(=O)O.O=C(O)CN(CC(=O)O)CC(=O)O.[Co+2]
T/C (dose: 50.0 mg/kg/injection, schedule: Q01DX009 (ip), vehicle: saline): 110 % of control | T/C [1]: 103 % of control | T/C [2]: 104 % of control | T/C [3]: 93 % of control | T/C [4]: 106 % of control | T/C [5]: 100 % of control

COc1ccc(C)cc1NC(=O)Nc1cc([N+](=O)[O-])ccc1C
T/C [6]: 93 % of control | T/C [7]: 98 % of control | T/C [8]: 102 % of control

COC(=O)c1ccccc1NC(=O)Nc1cccc(C(F)(F)F)c1
T/C (dose: 100.0 mg/kg/injection, schedule: Q04DX002 (ip), vehicle: Klucel (hydroxypropylcellulose) (HPC)): 101 % of control | T/C (dose: 200.0 mg/kg/injection, schedule: Q04DX002 (ip), vehicle: Klucel (hydroxypropylcellulose) (HPC)): 92 % of control | T/C (dose: 400.0 mg/kg/injection, schedule: Q04DX002 (ip), vehicle: Klucel (hydroxypropylcellulose) (HPC)): 105 % of control

COc1ccc(Br)cc1C1(O)C2C=CC1CC2 (stereo not drawn)
T/C [6]: 102 % of control | T/C [7]: 102 % of control | T/C [8]: 98 % of control

O=C1CC2CCC(C1)N2CC1COc2ccccc2O1 (stereo not drawn)
T/C (dose: 100.0 mg/kg/injection, schedule: Q01DX001 (ip), vehicle: saline): 100 % of control | T/C (dose: 200.0 mg/kg/injection, schedule: Q01DX001 (ip), vehicle: saline): 120 % of control

CN=C(NCCCOC)c1ccc(NC(=O)c2ccc(C(=O)Nc3ccc(C(=NC)NCCCOC)cc3)cc2)cc1
T/C (dose: 4.4 mg/kg/injection, schedule: Q01DX Z (ip), vehicle: carboxymethylcellulose (CMC)): 124 % of control | T/C (dose: 4.4 mg/kg/injection, schedule: Q01DX Z (ip), vehicle: saline): 108 % of control | T/C (dose: 6.6 mg/kg/injection, schedule: Q01DX Z (ip), vehicle: saline): 108 % of control | T/C (dose: 10.0 mg/kg/injection, schedule: Q01DX Z (ip), vehicle: carboxymethylcellulose (CMC)): 156 % of control | T/C [9]: 179 % of control | T/C (dose: 15.0 mg/kg/injection, schedule: Q01DX Z (ip), vehicle: saline): 155 % of control and 172 % of control | T/C (dose: 30.0 mg/kg/injection, schedule: Q01DX Z (oral), vehicle: saline): 101 % of control | T/C (dose: 60.0 mg/kg/injection, schedule: Q01DX Z (oral), vehicle: saline): 91 % of control | T/C (dose: 120.0 mg/kg/injection, schedule: Q01DX Z (oral), vehicle: saline): 93 % of control | T/C (dose: 240.0 mg/kg/injection, schedule: Q01DX Z (oral), vehicle: saline): 87 % of control | T/C (dose: 480.0 mg/kg/injection, schedule: Q01DX Z (oral), vehicle: saline): 91 % of control

CCOC(=O)CC1COC(=O)C1C(=O)OCC (stereo not drawn)
T/C [10]: 105 % of control | T/C [11]: 105 % of control and 120 % of control | T/C [12]: 95 % of control | T/C [13]: 98 % of control and 122 % of control | T/C [14]: 118 % of control | T/C [15]: 106 % of control

C/C=C(\C)C(=O)OC1CC(C)=C2C(=O)C=C(C)C2C2OC(=O)C(C)C12 (stereo not drawn)
T/C [16]: 98 % of control | T/C [17]: 102 % of control | T/C [18]: 96 % of control

COC1OC(C)C(OS(C)(=O)=O)C2OC(C)(C)OC12 (stereo not drawn)
T/C [19]: 103 % of control | T/C [6]: 97 % of control | T/C [16]: 124 % of control | T/C [7]: 100 % of control | T/C [17]: 107 % of control | T/C [8]: 112 % of control | T/C [18]: 101 % of control

O=C1OC(=O)N2N=CC=CC12 (stereo not drawn)
T/C [13]: 102 % of control | T/C [14]: 100 % of control | T/C [15]: 96 % of control

C/C(=C\c1c[nH]c2ccccc12)[N+](=O)[O-]
T/C [13]: 90 % of control | T/C [20]: 97 % of control | T/C [14]: 100 % of control | T/C [21]: 97 % of control | T/C [15]: 100 % of control | T/C [22]: 90 % of control

COc1ccc(NC(=S)Nc2ccccc2S)cc1
T/C [13]: 90 % of control | T/C (dose: 100.0 mg/kg/injection, schedule: Q04DX002 (ip), vehicle: saline with Tween-80): 97 % of control | T/C [14]: 97 % of control | T/C (dose: 200.0 mg/kg/injection, schedule: Q04DX002 (ip), vehicle: saline with Tween-80): 97 % of control | T/C (dose: 400.0 mg/kg/injection, schedule: Q04DX002 (ip), vehicle: saline with Tween-80): 97 % of control

Nc1nc2c(ncn2-c2cccc3ccccc23)c(=O)[nH]1
T/C (dose: 25.0 mg/kg/injection, schedule: Q01DX001 (ip), vehicle: saline with Tween-80): 93 % of control | T/C [23]: 119 % of control | T/C [24]: 93 % of control

CC(C)(C(=O)O)S(=O)(=O)O
T/C [1]: 108 % of control | T/C [3]: 97 % of control | T/C [25]: 103 % of control

CCNc1nc(Cl)nc(N(CC)CC)n1
T/C [13]: 91 % of control | T/C [14]: 98 % of control | T/C [15]: 89 % of control

O=C(O)c1ccccc1C(=O)c1cccc2c(Cl)cccc12
T/C (dose: 50.0 mg/kg/injection, schedule: Q01DX001 (ip), vehicle: Klucel (hydroxypropylcellulose) (HPC)): 97 % of control | T/C (dose: 100.0 mg/kg/injection, schedule: Q01DX001 (ip), vehicle: Klucel (hydroxypropylcellulose) (HPC)): 92 % of control | T/C (dose: 200.0 mg/kg/injection, schedule: Q01DX001 (ip), vehicle: Klucel (hydroxypropylcellulose) (HPC)): 91 % of control

O=P(O)(N(CCCl)CCCl)N1CCN(Cc2ccccc2)CC1
T/C (dose: 10.0 mg/kg/injection, schedule: Q01DX Z (ip), vehicle: other): 95 % of control | T/C (dose: 30.0 mg/kg/injection, schedule: Q01DX Z (ip), vehicle: other): 105 % of control | T/C (dose: 100.0 mg/kg/injection, schedule: Q01DX Z (ip), vehicle: other): 108 % of control

CCC(C)C(C=NCC(CCN(C)C)(c1ccc2ccccc2c1)C(C)CC)(CCN(C)C)c1ccc2ccccc2c1 (stereo not drawn)
T/C (dose: 12.5 mg/kg/injection, schedule: Q04DX002 (ip), vehicle: saline + alcohol): 92 % of control | T/C (dose: 12.5 mg/kg/injection, schedule: Q04DX002 (ip), vehicle: saline with Tween-80): 92 % of control | T/C (dose: 25.0 mg/kg/injection, schedule: Q04DX002 (ip), vehicle: saline + alcohol): 92 % of control

CC(C)N=C(NC(C)C)c1ccc(NC(=O)Nc2ccc(NC(=O)Nc3ccc(C(=NC(C)C)NC(C)C)cc3)cc2)cc1
T/C (dose: 1.88 mg/kg/injection, schedule: Q01DX Z (ip), vehicle: carboxymethylcellulose (CMC)): 101 % of control | T/C (dose: 3.75 mg/kg/injection, schedule: Q01DX Z (ip), vehicle: carboxymethylcellulose (CMC)): 102 % of control | T/C (dose: 7.5 mg/kg/injection, schedule: Q01DX Z (ip), vehicle: carboxymethylcellulose (CMC)): 116 % of control | T/C [9]: 102 % of control

CNC(=O)NNC(=O)CNC(=O)Nc1cccc(C(F)(F)F)c1
T/C (dose: 12.5 mg/kg/injection, schedule: Q01DX009 (ip), vehicle: Klucel (hydroxypropylcellulose) (HPC)): 94 % of control | T/C (dose: 25.0 mg/kg/injection, schedule: Q01DX009 (ip), vehicle: Klucel (hydroxypropylcellulose) (HPC)): 102 % of control | T/C [19]: 98 % of control

N#CCc1ccccc1S(=O)(=O)O
T/C [1]: 105 % of control | T/C [2]: 98 % of control | T/C [3]: 100 % of control | T/C [4]: 102 % of control | T/C [25]: 103 % of control | T/C [5]: 101 % of control

OC1CCCC23CCC12CC3 (stereo not drawn)
T/C [23]: 101 % of control | T/C [24]: 99 % of control | T/C (dose: 200.0 mg/kg/injection, schedule: Q01DX001 (ip), vehicle: saline with Tween-80): 96 % of control

CC(O)C(F)(F)C(F)(F)C(F)(F)C(C)O (stereo not drawn)
T/C [1]: 97 % of control | T/C [2]: 102 % of control | T/C [3]: 104 % of control | T/C [4]: 96 % of control | T/C [25]: 109 % of control | T/C [5]: 96 % of control

O=[N+]([O-])CC(OCCCc1ccccc1)C(Cl)(Cl)Cl (stereo not drawn)
T/C [13]: 107 % of control | T/C [20]: 93 % of control | T/C [14]: 109 % of control | T/C [21]: 104 % of control | T/C [22]: 91 % of control

O=[N+]([O-])c1ccc(Cl)c2ccccc12
T/C [10]: 94 % of control | T/C [11]: 91 % of control | T/C [12]: 87 % of control | T/C [13]: 91 % of control | T/C [14]: 88 % of control
